Where “and” joins values, the source holds several entries; their conditions need not be identical. Identical values can stand only once.
Test system: 186277-243-T-J2-PDC complex spheroid growth, % test/control
Test: Anticancer human tumor 186277-243-T-J2-PDC patient-derived colon adenocarcinoma cell line growth inhibition [Asc]
Settings: for viability, T/C: stronger effect = lower value; active = viability on the fitted dose curve at most 10% of control; inactive = the rest
In short: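 Concentration series start at each agent's clinical Cmax, or at 10 microM when none is established, and drop in half-log steps; agents are applied alone or together to complex spheroids built with HUVEC and hMSC.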

[1] = curve of first compound, second compound 0.01 µM
[2] = curve of first compound, second compound 0.0316 µM
[3] = curve of first compound, second compound 0.1 µM
[4] = curve of first compound, second compound 0.316 µM
[5] = curve of first compound, second compound 1 µM
[6] = second compound 0.1 µM, first compound 0.00316 µM
[7] = second compound 0.1 µM, first compound 0.01 µM
[8] = second compound 0.1 µM, first compound 0.0316 µM
[9] = second compound 0.1 µM, first compound 0.1 µM
[10] = second compound 0.316 µM, first compound 0.00316 µM
[11] = second compound 0.316 µM, first compound 0.01 µM
[12] = second compound 0.316 µM, first compound 0.0316 µM
[13] = second compound 0.316 µM, first compound 0.1 µM
[14] = second compound 1 µM, first compound 0.00316 µM
[15] = second compound 1 µM, first compound 0.01 µM
[16] = second compound 1 µM, first compound 0.0316 µM
[17] = second compound 1 µM, first compound 0.1 µM
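Also: spheroids exposed to agents for 7 days.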
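For viability, T/C in this document: 100% = DMSO vehicle control wells.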

Cn1ncnc1[C@H]1c2n[nH]c(=O)c3cc(F)cc(c23)N[C@@H]1c1ccc(F)cc1 + CNC(C)C(=O)NC1CN(S(=O)(=O)c2cccc(S(=O)(=O)N3CCC4CCC(C(=O)NC(c5ccccc5)c5ccccc5)N4C(=O)C(NC(=O)C(C)NC)C3)c2)CCC2CCC(C(=O)NC(c3ccccc3)c3ccccc3)N2C1=O
> 0.1 µM: IC50 [1] | IC50 [2] | IC50 [3] | IC50 [4] | IC50 [5]
inactive: viability, T/C (second compound 0.01 µM, first compound 0.000316 µM) 100% | viability, T/C (second compound 0.01 µM, first compound 0.001 µM) 97.5% | viability, T/C (second compound 0.01 µM, first compound 0.00316 µM) 106% | viability, T/C (second compound 0.01 µM, first compound 0.01 µM) 119% | viability, T/C (second compound 0.01 µM, first compound 0.0316 µM) 144% | viability, T/C (second compound 0.01 µM, first compound 0.1 µM) 144% | viability, T/C (second compound 0.0316 µM, first compound 0.000316 µM) 108% | viability, T/C (second compound 0.0316 µM, first compound 0.001 µM) 103% | viability, T/C (second compound 0.0316 µM, first compound 0.00316 µM) 129% | viability, T/C (second compound 0.0316 µM, first compound 0.01 µM) 124% | viability, T/C (second compound 0.0316 µM, first compound 0.0316 µM) 133% | viability, T/C (second compound 0.0316 µM, first compound 0.1 µM) 155% | viability, T/C (second compound 0.1 µM, first compound 0.000316 µM) 121% | viability, T/C (second compound 0.1 µM, first compound 0.001 µM) 115% | viability, T/C [6] 124% | viability, T/C [7] 127% | viability, T/C [8] 146% | viability, T/C [9] 155% | viability, T/C (second compound 0.316 µM, first compound 0.000316 µM) 101% | viability, T/C (second compound 0.316 µM, first compound 0.001 µM) 101% | viability, T/C [10] 108% | viability, T/C [11] 128% | viability, T/C [12] 147% | viability, T/C [13] 159% | viability, T/C (second compound 1 µM, first compound 0.000316 µM) 91.3% | viability, T/C (second compound 1 µM, first compound 0.001 µM) 115% | viability, T/C [14] 104% | viability, T/C [15] 131% | viability, T/C [16] 130% | viability, T/C [17] 149%

O=C(c1cc(Cc2n[nH]c(=O)c3ccccc23)ccc1F)N1CCN(C(=O)C2CC2)CC1
> 10 µM: IC50 (curve of compound)
inactive: viability, T/C (compound 0.0316 µM) 98.1% and 91.9% and 98.5% | viability, T/C (compound 0.1 µM) 95.8% and 101% and 97.5% | viability, T/C (compound 0.316 µM) 94.8% and 99% and 102% | viability, T/C (compound 1 µM) 95.9% and 94.6% and 98.1% | viability, T/C (compound 3.16 µM) 105% and 117% and 121% | viability, T/C (compound 10 µM) 103% and 112% and 135%

C=C(F)C(=O)N1CCN(c2nc(OCC3CCCN3C)nc3c2CCN(c2cccc4cccc(Cl)c24)C3)CC1CC#N (stereo not drawn)
inactive: viability, T/C (compound 0.0316 µM) 107% and 98.5% and 102% | viability, T/C (compound 0.1 µM) 112% and 77.5% and 116% | viability, T/C (compound 0.316 µM) 107% and 83.6% and 103% | viability, T/C (compound 1 µM) 103% and 77.3% and 80.7% | viability, T/C (compound 3.16 µM) 96.5% and 85% and 109%
5.7 µM and 5.17 µM and 9.28 µM: IC50 (curve of compound)

CNC(C)C(=O)NC1CN(S(=O)(=O)c2cccc(S(=O)(=O)N3CCC4CCC(C(=O)NC(c5ccccc5)c5ccccc5)N4C(=O)C(NC(=O)C(C)NC)C3)c2)CCC2CCC(C(=O)NC(c3ccccc3)c3ccccc3)N2C1=O (stereo not drawn) + Cc1c(S(C)(=O)=O)c(-c2cc(F)cc(N3CCN(c4ccc(NS(=O)(=O)c5ccc(NC(CCN6CCC(C(=O)OCCCP(=O)(O)O)CC6)CSc6ccccc6)c(S(=O)(=O)C(F)(F)F)c5)cc4)CC3)c2)c(-c2ccc(Cl)cc2)n1C(C)C
inactive: viability, T/C [6] 99.7% | viability, T/C [7] 108% | viability, T/C [8] 111% | viability, T/C [9] 106% | viability, T/C (second compound 0.1 µM, first compound 0.316 µM) 101% | viability, T/C (second compound 0.1 µM, first compound 1 µM) 110% | viability, T/C [10] 102% | viability, T/C [11] 104% | viability, T/C [12] 102% | viability, T/C [13] 105% | viability, T/C (second compound 0.316 µM, first compound 0.316 µM) 108% | viability, T/C (second compound 0.316 µM, first compound 1 µM) 110% | viability, T/C [14] 123% | viability, T/C [15] 114% | viability, T/C [16] 101% | viability, T/C [17] 110% | viability, T/C (second compound 1 µM, first compound 0.316 µM) 110% | viability, T/C (second compound 1 µM, first compound 1 µM) 99.5% | viability, T/C (second compound 3.16 µM, first compound 0.00316 µM) 105% | viability, T/C (second compound 3.16 µM, first compound 0.01 µM) 109% | viability, T/C (second compound 3.16 µM, first compound 0.0316 µM) 93.6% | viability, T/C (second compound 3.16 µM, first compound 0.1 µM) 109% | viability, T/C (second compound 3.16 µM, first compound 0.316 µM) 110% | viability, T/C (second compound 3.16 µM, first compound 1 µM) 104% | viability, T/C (second compound 10 µM, first compound 0.00316 µM) 93.6% | viability, T/C (second compound 10 µM, first compound 0.01 µM) 103% | viability, T/C (second compound 10 µM, first compound 0.0316 µM) 102% | viability, T/C (second compound 10 µM, first compound 0.1 µM) 109% | viability, T/C (second compound 10 µM, first compound 0.316 µM) 101% | viability, T/C (second compound 10 µM, first compound 1 µM) 107%
> 1 µM: IC50 [3] | IC50 [4] | IC50 [5] | IC50 (curve of first compound, second compound 3.16 µM) | IC50 (curve of first compound, second compound 10 µM)

Cc1nc(N2CCC3(CC2)COC(C)C3N)c(CO)nc1Sc1ccnc(N)c1Cl (stereo not drawn) + CNC(C)C(=O)NC1CN(S(=O)(=O)c2cccc(S(=O)(=O)N3CCC4CCC(C(=O)NC(c5ccccc5)c5ccccc5)N4C(=O)C(NC(=O)C(C)NC)C3)c2)CCC2CCC(C(=O)NC(c3ccccc3)c3ccccc3)N2C1=O
> 3 µM: IC50 [1] | IC50 [2] | IC50 [3] | IC50 [4] | IC50 [5]
inactive: viability, T/C (second compound 0.01 µM, first compound 0.00949 µM) 106% | viability, T/C (second compound 0.01 µM, first compound 0.03 µM) 102% | viability, T/C (second compound 0.01 µM, first compound 0.0949 µM) 112% | viability, T/C (second compound 0.01 µM, first compound 0.3 µM) 93% | viability, T/C (second compound 0.01 µM, first compound 0.949 µM) 97.8% | viability, T/C (second compound 0.01 µM, first compound 3 µM) 106% | viability, T/C (second compound 0.0316 µM, first compound 0.00949 µM) 98.8% | viability, T/C (second compound 0.0316 µM, first compound 0.03 µM) 111% | viability, T/C (second compound 0.0316 µM, first compound 0.0949 µM) 107% | viability, T/C (second compound 0.0316 µM, first compound 0.3 µM) 91.6% | viability, T/C (second compound 0.0316 µM, first compound 0.949 µM) 104% | viability, T/C (second compound 0.0316 µM, first compound 3 µM) 104% | viability, T/C (second compound 0.1 µM, first compound 0.00949 µM) 107% | viability, T/C (second compound 0.1 µM, first compound 0.03 µM) 101% | viability, T/C (second compound 0.1 µM, first compound 0.0949 µM) 103% | viability, T/C (second compound 0.1 µM, first compound 0.3 µM) 97.7% | viability, T/C (second compound 0.1 µM, first compound 0.949 µM) 102% | viability, T/C (second compound 0.1 µM, first compound 3 µM) 119% | viability, T/C (second compound 0.316 µM, first compound 0.00949 µM) 96% | viability, T/C (second compound 0.316 µM, first compound 0.03 µM) 104% | viability, T/C (second compound 0.316 µM, first compound 0.0949 µM) 106% | viability, T/C (second compound 0.316 µM, first compound 0.3 µM) 103% | viability, T/C (second compound 0.316 µM, first compound 0.949 µM) 101% | viability, T/C (second compound 0.316 µM, first compound 3 µM) 100% | viability, T/C (second compound 1 µM, first compound 0.00949 µM) 112% | viability, T/C (second compound 1 µM, first compound 0.03 µM) 110% | viability, T/C (second compound 1 µM, first compound 0.0949 µM) 99.6% | viability, T/C (second compound 1 µM, first compound 0.3 µM) 102% | viability, T/C (second compound 1 µM, first compound 0.949 µM) 105% | viability, T/C (second compound 1 µM, first compound 3 µM) 101%
